Where two headings read alike, the source gives them in different places.

Data set [1] deals with p-ERK in AGS cells. Nature of the data set: Inhibition of p-ERK in AGS cells (LANCE Ultra phospho-ERK1/2 kit). The format is cell-based. The following applies: read-out: AGS_pERK IC50. The protocol: 1. Experimental objective: The inhibition activity of the example compounds on the phosphorylated ERK level in KRAS G12D mutant cells AGS was determined. 2. Experimental instruments: • 2.1 Instruments: Envison; Pipette (Eppendorf & Rainin) • 2.2 Reagents: AGS cells were purchased from COBIOER BIOSCIENCES CO., LTD, with a catalog number of CBP60476; Phosphorylated ERK1/2 (T202-Y204) LANCE Ultra Cellular Detection Kit was purchased from PerkinElmer, with a catalog number of TRF4000M; RPMI 1640 was purchased from Gibco, with a catalog number of 22400071; FBS was purchased from Gibco, with a catalog number of 10091148; PBS was purchased from Gibco, with a catalog number of 10010023; trypsin was purchased from Gibco, with a catalog number of 25200056; cell culture plates were purchased from Corning Company, with a catalog number of 3610; White opaque OptiPlate™-384 plates were purchased from PerkinElmer, with a catalog number of 6007290. 3. Experimental method: When AGS cells were cultured to appropriate confluence, the AGS cells were collected, and the cell density was adjusted to 4 × 10^5/mL using complete culture medium. The cell suspension was plated onto a 96-well plate at 100 µL per well, and the plate was placed in the incubator at 37°C and 5% CO2 for adherent culture overnight. Solutions of the compound with different concentrations were formulated using DMSO and complete culture medium, and a vehicle control was set up. The solutions of the compound were added to the 96-well plate at 25 µL per well, and the plate was placed in the incubator at 37°C and 5% CO2 for further culture for 2 h. Then, the supernatant of the cell culture plate was discarded, 50 µL of lysis buffer was added to each well, the cells were lysed at room temperature under shaking for 30 min, then placed in a centrifuge and centrifuged at 1000 rpm for 1 min. 15 µL of supernatant was transferred to a 384-well plate, 5 µL of detection mixture was added to each well (Eu-labeled anti-ERK1/2 (T202-Y204) Antibody at a final detection concentration of 0.5 nM and ULight labeled anti-ERK1/2 Antibody at a final detection concentration of 5 nM), centrifuged at 1000 rpm for 1 min, mixed evenly, and reacted at room temperature overnight. The plate was read using Envison and the signal values at the emission wavelengths of 620 nm and 665 nm were detected using a time-resolved fluorescence program. 4. […] Graphpad Prism software was used to fit the concentration and inhibition rate to a nonlinear regression curve, so as to obtain the IC50 value. Table 5: Inhibition activity of the compounds on p-ERK in AGS cells
Background: In TR-FRET formats the signal depends on donor and acceptor labels being close together.

The subject of data set [2] is human pancreatic cancer cell line (HPAC). The experiment in a line: Antitumor efficacy in mouse transplanted tumor model of human pancreatic cancer cell line (HPAC). The format is in vivo, mice (BALB/c nude). The following applies: Table 12, HPAC xenograft, 100mpk, PO*BID; for Tumor volume (mm^3, Mean ± SD) Day 0: Day 0 (baseline). From the text: 8-10 week old female conventional immunodeficient mice (BALB/c nude) with a body weight of 18 g-22 g were used as experimental animals, and a transplanted tumor model of human pancreatic cancer cell line (HPAC) was used to conduct in vivo efficacy experiments to test the anti-tumor results of the example compounds after gavage administration.
The example compounds of the present invention, made in house.
A certain amount of the example compound was weighed, and an appropriate amount of 10% vehicle (Solutol HS15) was added. The mixture was stirred on a magnetic stirrer for 0.5 h to formulate a homogeneous suspension at the desired concentration.
Human pancreatic cancer cell line (HPAC) was derived from COBIOER BIOSCIENCES CO., LTD, cultured on DMEM/F12 medium (Gibco, 11330-032) supplemented with 10% fetal calf serum (Gibco, 10091-148), 1×Insulin (51500-056, Gibco) and 10 ng/ml of EGF (PHG0311, Gibco) and observed under a microscope (Thermo Fisher, 311). The cells were routinely passaged when the cells reached 80%-90% confluence in the culture flask. The passaged cells were cultured in a 37°C, 5% CO2 incubator (Thermo Fisher, 311).
Under aseptic conditions, human pancreatic cancer cells (HPAC) in the logarithmic growth phase were harvested using 0.25% trypsin-EDTA (Gibco, 25200-056), washed and resuspended with phosphate buffer. The cell suspension was mixed with Matrigel (Corning, 356234) at a 1 : 1 ratio (v/v) and implanted subcutaneously into the right anterior dorsal region of immunodeficient mice (BALB/c nude). Each mouse was inoculated with 3*10^6 cells in a volume of 100 microliters (µL). After inoculation, when the tumor volume reached 100-200 mm^3, the mice would be evenly randomized into 5 groups based on the tumor size, with 5 mice per group, for in vivo efficacy experiments. The negative control group was the vehicle group.
Mode of administration: The example compounds were administered orally.
Twice a week, the long and short diameters of the tumor were measured using a vernier caliper, and the tumor volume (mm^3) was calculated using the formula: V = 0.5*D*d*d, where D and d are the long and short diameters of the tumor, respectively. The anti-tumor efficacy was determined by dividing the average increase in tumor volume of compound-treated animals by the average increase in tumor volume of untreated animals. The calculation formula for tumor inhibition rate was: When there is no tumor regression, TGI(%) = 100-[(Vt-V0) administration group/(Vt-V0) vehicle control group]*100%. When tumor regression occurs, TGI(%) = [1-(Vt-V0) administration group/V0 vehicle control group]*100%. All animals were euthanized after the experiment.

The test system of data set [3] is GP2D. The experiment in a line: Inhibition of proliferation of KRAS G12D mutant tumor cell line GP2D (CellTiter-Glo). Particulars: read-out: GP2D IC50. For orientation: In ATP-based viability assays light output follows the ATP content of the culture.
Data set [4] in a line: Pharmacokinetic determination in rats (IV and PO, plasma, LCMS/MS). In kind it is in vivo, SD rats. Particulars: for AUC(0-inf): read-out: AUCo-∞. The method, boiled down:
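Male SD rats (3/group), fasted overnight, dosed PO at 30 mg/kg in 10% Captisol/50 mM citrate pH 5.0 or IV at 1 mg/kg in 5% DMSO/10% Solutol HS15/85% PBS. Jugular plasma (EDTA-2K) sampled predose to 24 h; analysed by LCMS/MS.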

The test system of data set [5] is AsPC-1. Nature of the data set: Inhibition of proliferation of KRAS G12D mutant tumor cell line AsPC-1 (CellTiter-Glo). The format is cell-based. Particulars: Homo sapiens, ASPC1, about 72 h. In outline: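 KRAS G12D-mutant AsPC-1 cells plated overnight at 37 °C/5% CO2, then exposed to serial compound dilutions (DMSO/medium, vehicle control) for about 72 h. Viability read by CellTiter-Glo luminescence; inhibition rate vs concentration fitted by nonlinear regression for IC50.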

Data set [6] in a line: Pharmacokinetic determination in mice (IV and PO, plasma, LCMS/MS). The following applies: male, Balb/c, mouse, in vivo. In kind it is in vivo, Balb/c mice. The method, boiled down: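 Male Balb/c mice, fasted overnight (n=3 per route): PO 30 mg/kg in 10% Captisol/50 mM citrate pH 5.0, or IV 1 mg/kg in 5% DMSO/10% Solutol HS15/85% PBS. Orbital blood sampled predose to 24 h; EDTA plasma analysed by LC-MS/MS.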

Data set [7] relates to human colorectal cancer cell line (GP2D). Nature of the data set: Anti-tumor efficacy in mouse transplanted tumor model of human colorectal cancer cell line (GP2D). In kind it is in vivo, mice (BALB/c nude).
Where [8] appears, read: male, SD, rat, in vivo, iv, 1 mg/kg.
Setting [9] is: male, SD, rat, in vivo, po, 30 mg/kg.

“3-chloro-5-((5S,5aS,6R,9S)-5-ethyl-1-fluoro-12-((1-((4-(fluoromethylene)piperidin-1-yl)methyl-d2)cyclopropyl)methoxy-d2)-5a,6,7,8,9,10-hexahydro-5H-4-oxa-3,10a,11,13,14-pentaaza-6,9-methylnaphtho[1,8-ab]hept-2-yl)-4-(trifluoromethyl)aniline [Example 330]”: in data set [1] (AGS cells, 2 h with compound), the IC50 was 3.8 nM. In data set [2], the “Tumor volume (mm^3, Mean ± SD) Day 0” value came to 468 mm^3; the “TGI(%) Day 14” value is on record as 110.18%; the “ΔT/ΔC(%) Day 14” value is 43.78%; the “Tumor volume (mm^3, Mean ± SD) Day 21” value was found to be 418 mm^3. The IC50 in data set [3] (proliferation, about 72 h, CellTiter-Glo) stood at 0.17 nM.

Take `C#Cc1c(F)ccc2cc(O)cc(-c3nc4c5c(nc(OCC6(CN7CCC(=CF)CC7)CC6)nc5c3F)N3C[C@H]5CC[C@H](N5)[C@H]3[C@H](CC)O4)c12` [Example 137, 4-((5S,5aS,6S,9R)-12-((1-((4-(fluoromethylene)piperidin-1-yl)methyl)cyclopropyl)methoxy)-5-ethyl-1-fluoro-5a,6,7,8,9,10-hexahydro-5H-4-oxa-3,10a,11,13,14-pentaaza-6,9-methylnaphtho[1,8-ab]hept-2-yl)-5-ethynyl-6-fluoronaphthalen-2-ol]: the half-maximal inhibitory concentration (IC50) in data set [1] (Homo sapiens, AGS, 2 h) stood at 5.8 nM; in data set [3] (Homo sapiens, GP2d, 72 h), 0.41 nM. For the same molecule, in data set [4] (PO 30 mg/kg vs IV 1 mg/kg, male SD rats), the F amounted to 9.7%. Besides, the AUC(0-inf) in data set [4] (rat, in vivo, IV, 1 mg/kg, male SD rats, overnight fasting, plasma) was found to be 793 ng·h/mL; in data set [4] (rat, in vivo, PO, 30 mg/kg, male SD rats, overnight fasting, plasma), 2110 ng·h/mL. Besides, in data set [4] (rat, in vivo, IV, 1 mg/kg, male SD rats, overnight fasting, plasma, read-out: C0), the C0 is 1630 ng/mL. Moreover, the clearance in data set [4] (rat, in vivo, IV, 1 mg/kg, male SD rats, overnight fasting, plasma, read-out: CL) amounted to 21 mL/min/kg. Besides, the half-life in data set [4] (rat, in vivo, IV, 1 mg/kg, male SD rats, overnight fasting, plasma, read-out: T1/2 (converted)) was 11.3 h; in data set [4] (rat, in vivo, PO, 30 mg/kg, male SD rats, overnight fasting, plasma, read-out: T1/2 (converted)) it was 6.2 h. In addition, the Cmax in data set [4] (rat, in vivo, PO, 30 mg/kg, male SD rats, overnight fasting, plasma, read-out: Cmax) amounted to 271 ng/mL. Moreover, the Tmax in data set [4] (rat, in vivo, PO, 30 mg/kg, male SD rats, overnight fasting, plasma, read-out: Tmax) amounted to 4 h.

With `[2H]C([2H])([2H])[C@@H]1Oc2nc(-c3cc(N)cc(Cl)c3C(F)(F)F)c(F)c3nc(OC([2H])([2H])C4(C([2H])([2H])N5CCC(=NOC)CC5)CC4)nc(c23)N2C[C@H]3CC[C@H](N3)[C@@H]12` [Example 341, 1-((1-((((5S,5aS,6S,9R)-2-(5-amino-3-chloro-2-(trifluoromethyl)phenyl)-1-fluoro-5-(methyl-d3)-5a,6,7,8,9,10-hexahydro-5H-4-oxa-3,10a,11,13,14-pentaaza-6,9-methylnaphtho[1,8-ab]heptene-12-yl)oxy)methyl-d2)cyclopropyl)methyl-d2)piperidin-4-one O-methyloxime], the IC50 in data set [5] came to 2.6 nM. Also, in data set [1] (Homo sapiens, AGS, 2 h), the IC50 stood at 4.2 nM. Also, in data set [2], the “Tumor volume (mm^3, Mean ± SD) Day 0” value was found to be 469 mm^3; the “TGI(%) Day 14” value is reported as 161.42%; the “ΔT/ΔC(%) Day 14” value was found to be 18.73%; the “Tumor volume (mm^3, Mean ± SD) Day 21” value amounted to 180 mm^3. In addition, the IC50 in data set [3] (Homo sapiens, GP2d, 72 h) amounted to 0.1 nM.

Consider `C#Cc1c(F)ccc2cc(O)cc(-c3ncc4c(N5CC6CCC(C5)N6)nc(OC[C@@]56CCCN5C[C@H](F)C6)nc4c3F)c12` [MRTX-1133, reference compound], for which, in data set [6] (iv, 1 mg/kg), the AUC was determined as 305 ng·h/mL, the C0 came out at 854 ng/mL, the clearance is 55 mL/min/kg and the half-life is 11.1 h. Besides, in data set [6] (po, 30 mg/kg), the Cmax amounted to 11 ng/mL and the Tmax is 2 h. In data set [4] (setting [8]), the AUC was found to be 367 ng·h/mL, the C0 was 2490 ng/mL, the clearance stood at 45 mL/min/kg and the half-life was 2.7 h. Besides, in data set [4] (setting [9]), the Cmax amounted to 11 ng/mL and the Tmax is 2 h. Moreover, in data set [7] (10mpk, IV*BID, Day 0), the “Tumor volume (mm^3, Mean ± SD) Day 0” value came out at 167 mm^3. In addition, in data set [7] (10mpk, IV*BID, Day 14), the “TGI(%) Day 14” value amounted to 143.79%; the “Tumor volume (mm^3, Mean ± SD) Day 14” value is 94 mm^3; the “ΔT/ΔC(%) Day 14” value amounted to 11.89%. Also, the “tumor inhibition effect (in words)” value in data set [7] (intravenous administration dose of 10 mg/kg) is on record as “inhibition effect of tumor regression”.

For orientation: IC50 means the concentration that gives 50% inhibition. As usually defined, the Cmax is the maximum level reached in the sampled fluid or tissue. By Tmax is commonly meant the time at which the peak concentration occurs. For orientation: AUC means the area under the concentration-time curve, a measure of exposure. High values mean more exposure, low ones less exposure.

The values above are taken from EP4635958A1, “PYRIMIDINE-CONTAINING POLYCYCLIC DERIVATIVE INHIBITOR, AND PREPARATION METHOD THEREFOR AND USE THEREOF” (Shanghai Hansoh Biomedical Co., Ltd., priority 2022, dated 2024).
